Assay: wn = mass fraction of the nth substance listed
Settings: 101 kPa, Liquid

CCC[n+]1ccn(C)c1.[Br-] [1-methyl-3-propylimidazolium bromide] + CC#N
Settings | mass density, 288.15 K [kg/m3] | mass density, 293.15 K [kg/m3] | mass density, 298.15 K [kg/m3] | mass density, 303.15 K [kg/m3] | mass density, 308.15 K [kg/m3] | speed of sound, 288.15 K [m/s] | speed of sound, 293.15 K [m/s] | speed of sound, 298.15 K [m/s] | speed of sound, 303.15 K [m/s] | speed of sound, 308.15 K [m/s]
w1 = 0.0042 | 788.991 | 783.623 | 778.237 | 772.813 | 767.37 | 1320.2 | 1300.1 | 1280 | 1259.7 | 1239.6
w1 = 0.0061 | 789.726 | 784.364 | 778.979 | 773.562 | 768.119 | 1320.5 | 1300.3 | 1280.2 | 1260 | 1240.1
w1 = 0.0082 | 790.532 | 785.181 | 779.798 | 774.387 | 768.949 | 1321.1 | 1301.1 | 1281 | 1260.9 | 1240.8
w1 = 0.0107 | 791.47 | 786.115 | 780.735 | 775.331 | 769.896 | 1321.5 | 1301.3 | 1281.2 | 1261.1 | 1241.2
w1 = 0.0124 | 792.123 | 786.772 | 781.397 | 775.996 | 770.564 | 1322 | 1302 | 1281.9 | 1261.8 | 1241.7
w1 = 0.0161 | 793.533 | 788.186 | 782.814 | 777.417 | 771.996 | 1322.6 | 1302.5 | 1282.4 | 1262.3 | 1242.5
w1 = 0.0206 | 795.242 | 789.902 | 784.538 | 779.149 | 773.734 | 1323.5 | 1303.4 | 1283.4 | 1263.4 | 1243.5
w1 = 0.0251 | 796.939 | 791.606 | 786.248 | 780.864 | 775.46 | 1324.4 | 1304.3 | 1284.3 | 1264.4 | 1244.6
w1 = 0.0298 | 798.688 | 793.361 | 788.011 | 782.637 | 777.238 | 1325.3 | 1305.3 | 1285.3 | 1265.4 | 1245.6
w1 = 0.0347 | 800.578 | 795.262 | 789.919 | 784.553 | 779.16 | 1326.4 | 1306.5 | 1286.6 | 1266.7 | 1246.8
w1 = 0.0407 | 802.812 | 797.5 | 792.166 | 786.808 | 781.426 | 1327.3 | 1307.4 | 1287.5 | 1267.6 | 1248
w1 = 0.0493 | 806.071 | 800.772 | 795.452 | 790.107 | 784.738 | 1329.1 | 1309.3 | 1289.4 | 1269.6 | 1249.8
w1 = 0.0605 | 810.335 | 805.049 | 799.743 | 794.412 | 789.059 | 1331 | 1311.1 | 1291.3 | 1271.6 | 1252.1
w1 = 1 | 1323.47 | 1319.84 | 1316.22 | 1312.6 | 1308.97 | 1699.3 | 1685 | 1672 | 1659.9 | 1648.3

CCC[n+]1ccn(C)c1.[Br-] [1-methyl-3-propylimidazolium bromide] + CN(C)C=O
Settings | mass density, 288.15 K [kg/m3] | mass density, 293.15 K [kg/m3] | mass density, 298.15 K [kg/m3] | mass density, 303.15 K [kg/m3] | mass density, 308.15 K [kg/m3] | speed of sound, 288.15 K [m/s] | speed of sound, 293.15 K [m/s] | speed of sound, 298.15 K [m/s] | speed of sound, 303.15 K [m/s] | speed of sound, 308.15 K [m/s]
w1 = 0.006 | 955.471 | 950.721 | 945.962 | 941.197 | 936.424 | 1498.4 | 1479.2 | 1459.8 | 1440.5 | 1421.2
w1 = 0.0073 | 955.896 | 951.148 | 946.392 | 941.628 | 936.859 | 1498.7 | 1479.5 | 1460.1 | 1440.8 | 1421.5
w1 = 0.0101 | 956.834 | 952.089 | 947.339 | 942.58 | 937.812 | 1499.5 | 1480.2 | 1460.8 | 1441.4 | 1422.2
w1 = 0.012 | 957.413 | 952.669 | 947.92 | 943.162 | 938.398 | 1499.8 | 1480.3 | 1460.9 | 1441.6 | 1422.5
w1 = 0.0162 | 958.776 | 954.039 | 949.295 | 944.542 | 939.782 | 1500.8 | 1481.6 | 1462.2 | 1442.9 | 1423.7
w1 = 0.0204 | 960.154 | 955.416 | 950.675 | 945.932 | 941.175 | 1501.7 | 1482.2 | 1462.9 | 1443.6 | 1424.5
w1 = 0.0249 | 961.605 | 956.878 | 952.144 | 947.403 | 942.652 | 1502.7 | 1483.5 | 1464.2 | 1445 | 1425.8
w1 = 0.0303 | 963.324 | 958.602 | 953.872 | 949.136 | 944.395 | 1503.7 | 1484.4 | 1465.1 | 1445.9 | 1426.9
w1 = 0.0348 | 964.79 | 960.068 | 955.349 | 950.617 | 945.882 | 1504.8 | 1485.4 | 1466.2 | 1447 | 1428.1
w1 = 0.0405 | 966.57 | 961.858 | 957.139 | 952.415 | 947.684 | 1505.8 | 1486.5 | 1467.3 | 1448.2 | 1429.2
w1 = 0.0503 | 969.758 | 965.06 | 960.356 | 955.641 | 950.923 | 1507.8 | 1488.8 | 1469.7 | 1450.5 | 1431.6
w1 = 0.0586 | 972.333 | 967.639 | 962.94 | 958.234 | 953.523 | 1509.3 | 1490.1 | 1471 | 1452 | 1433.1
w1 = 1 | 1323.47 | 1319.84 | 1316.22 | 1312.6 | 1308.97 | 1699.3 | 1685 | 1672 | 1659.9 | 1648.3
